The conditions of series [1]: cited from earlier work.
In series [2] the target is κ2a-2 opioid receptor. The note with it: κ2a-2 subtype; cited from earlier work.
In series [3] the test system is Sprague-Dawley rats. The format is in vivo, rat (Sprague-Dawley).
Series [4] has as its system Sprague-Dawley rats. The following applies: cited from earlier work; for ED50 / Time to maximum antinociception: i.c.v.
For series [5], the system named is fetal dorsal root ganglion sensory neurones. The note with it: cited from earlier work.
The test system of series [6] is δ-opioid receptors relative to μ-opioid receptors. The note with it: cited from earlier work.
Series [7] has as its system δ- relative to κ-opioid receptors. The note with it: cited from earlier work.
Series [8] deals with κ-opioid receptors. The note with it: in vivo; cited from earlier work.
Series [9] has as its system surgical patients. The format is in vivo, human. The note with it: i.v. morphine 2.0 mg plus oxycodone 2.0 mg; oxycodone 10 mg alone.
The test system of series [10] is Dark Agouti rats. Further details: species or system rat (Dark Agouti). The following applies: rat, in vivo, sc.
Series [11] relates to Sprague-Dawley rats.
The subject of series [12] is rats. The note with it: systemic oxycodone; cited from earlier work.
In series [13] the test system is Dark Agouti rats. The following applies: s.c. oxycodone; cited from earlier work.
For series [14], the system named is Dark Agouti rats. The format is in vivo, rat (Dark Agouti). The following applies: any time.
Series [15] relates to Sprague-Dawley rats. Type of series: in vivo, rat (Sprague-Dawley). The source holds these as a separate data set.
The test system of series [16] is humans. The following applies: naive human adult, every four hours, cited from earlier work.
Series [17] concerns Dark Agouti rats. The note with it: rat, in vivo, sc.
The test system of series [18] is surgical patients. The note with it: i.v. alone; cited from earlier work.

Data on nine compounds can be found in patent US6310072A (priority 1995, dated 2001).

“Also recorded” adds a separate entry of the source. Where two headings read alike, the source gives them in different places.

As to `Oc1ccc2c3c1O[C@H]1c4[nH]c5c(c4C[C@@]4(O)[C@@H](C2)N(CC2CC2)CC[C@]314)C[C@@]1(O)[C@H]2Cc3ccc(O)c4c3[C@@]1(CCN2CC1CC1)[C@H]5O4` [nor-BNI, nor-binaltorphimine], in series [1] (nor-BNI), the “Effect on U69,593 antinociception” value was “antagonize the antinociceptive effects” and the “Effect on bremazocine antinociception” value is “antagonize the antinociceptive effects”. The Ki (as a rule, the equilibrium dissociation constant of an inhibitor or competing ligand from its target) in [2] was 5.9 nM. Moreover, in series [3] (rat, in vivo), the “Effect on U69,593 antinociception” value was “complete attenuation of the antinociceptive effects; also recorded: markedly attenuated”, the “Effect on bremazocine antinociception” value is given as “complete attenuation of the antinociceptive effects; also recorded: markedly attenuated”, the “Effect on morphine antinociception” value was “not attenuated; also recorded: no effect; also recorded: did not attenuate” and the “Effect on oxycodone antinociception” value is “complete attenuation of the antinociceptive effects; also recorded: markedly attenuated; also recorded: completely attenuated; also recorded: completely attentuated; also recorded: attenuated only by nor-BNI”.
In the case of `C=CCN1CC[C@]23c4c5ccc(O)c4O[C@H]2C(=O)CC[C@@]3(O)[C@H]1C5` [naloxone], the “Reversal of oxycodone/morphine antinociception by naloxone” value in series [4] (rat, in vivo) is on record as “completely reversible; also recorded: completely attenuated”. Moreover, the “Action potential duration (APD)” value in series [5] is given as “marked shortening of the action potential duration (APD)”.
For `Oc1ccc2c3c1O[C@H]1c4[nH]c5ccccc5c4C[C@@]4(O)[C@@H](C2)N(CC2CC2)CC[C@]314` [naltrindole], in series [3] (rat, in vivo), the “%MPE values versus pre-dosing baseline” value was “not significantly different (p>0.05) from pre-dosing baseline values”, the “Effect on DPDPE antinociception” value is given as “significantly attenuated (p<0.05); also recorded: completely attenuated” and the “Effect on oxycodone antinociception” value is reported as “did not significantly attenuate (p>0.05); also recorded: failed to attenuate”. Further, the “Selectivity for δ- relative to μ-opioid receptors” value in [6] was 100 fold. In addition, the “Selectivity for δ- relative to κ-opioid receptors” value in series [7] is recorded as 10,000 fold.
Take `CCC12CCN(CC3CC3)C(C(=O)c3ccc(O)cc31)C2C` (centres unmarked) [ethylketazocine]: the Antinociception profile result in series [8] was “antinociception characterised by a rapid onset of action and a single antinociceptive phase”.
Regarding `COc1ccc2c3c1O[C@H]1C(=O)CC[C@@]4(O)[C@@H](C2)N(C)CC[C@]314` [oxycodone], the “Onset of clinical effect” value in series [9] is approximately 5 min. For the same compound, in [10], the ED50 oxycodone dose is recorded as 0.44 (±0.04) mg, the “Time of onset of antinociception (%MPE≥30%)” value worked out at 12 min and the “Time to maximum antinociception (Tmax)” value is reported as 20 min. Further, the Catatonic behaviour entry in series [11] (i.c.v. oxycodone 200 nmol) is given as “nor did they exhibit the catatonic behaviour”. Besides, the “Spontaneous bladder emptying or incontinence” value in [11] (i.c.v., oxycodone 200 nmol, morphine 78 nmol) is “did not exhibit any signs of spontaneous bladder emptying or incontinence”. Further, the Catatonic behaviour entry in series [12] is recorded as “catatonic behaviour observed”. In addition, in [13], the Antinociception result is reported as “achieved maximum antinociception”. Further, the “Antinociception (% MPE)” value in [14] (i.p. oxycodone 571 nmol alone) is given as not above 50 % MPE. In series [3] (i.c.v. oxycodone 200 nmol), the “Time of peak antinociception” value stood at 5 min and the “Time to return to baseline values” is given as not above 90 min. For the same compound, the “Antinociception peak (% MPE)” value in series [3] (i.c.v. oxycodone 200 nmol, 5 min) worked out at 100 % MPE. Moreover, the “Duration of action of oxycodone” value in [3] (oxycodone 200 nmol i.c.v. alone) was found to be 90 min. The Duration of antinociception in [15] (i.c.v. equipotent doses administered separately) turned out to be 90 min. For the same compound, the Antinociception entry in [15] (i.c.v. oxycodone 40 nmol alone) is given as “no antinociception was observed; also recorded: most of the %MPE values were negative”. The “Lower threshold initial dose producing analgesia” value in series [16] (oral) is 10 mg. Besides, in [17], the “Failure of eye reflex test” value was “approximately 40 % of the time”, the “Failure of righting reflex test” value is given as ~50 % of the time, the “Loss of landing reflex” value was “no loss of the landing reflex” and the “Loss of righting or landing reflexes” value is reported as “no loss of the righting or landing reflexes”. Besides, the Sedation entry in series [17] was “markedly sedated compared with control rats”. Also, the “Reversal of oxycodone/morphine antinociception by naloxone” value in series [4] (i.c.v. naloxone (55 nmol)) is on record as “naloxone-reversible antinociceptlon”. Besides, in [4] (i.c.v. oxycodone, post-dosing), the “Time by which antinociception is essentially complete” value was not above 90 min. In series [4], the ED50 is 78 nmol and the “Time to maximum antinociception” value is on record as not above 7 min. Moreover, the “Time to maximum antinociception” value in series [4] (listed as Oxycodone) is 5 to 7 min. Further, in [18], the “Dose used for intubation” value was “approximately 10 mg”.
For `C=CCN1CC[C@]23c4c5ccc(O)c4O[C@H]2/C(=N/N=C2\CC[C@@]4(O)[C@H]6Cc7ccc(O)c8c7[C@@]4(CCN6CC=C)[C@H]2O8)CC[C@@]3(O)[C@H]1C5` [naloxonazine], in [11] (rat, in vivo), the Excitatory behaviour entry was “minor excitatory behaviour (shaking and teeth chattering)”; the “Sensitivity to external stimuli versus untreated rats” value is “more sensitive to external stimuli (touch and sound)”. For the same compound, in series [1] (naloxonazine), the “Effect on DAMGO antinociception” value is reported as “antagonise the antinociceptive effects”, the “Effect on DPDPE antinociception” value is given as “did not reduce the antinociception” and the “Effect on morphine antinociception” value was “antagonise the antinociceptive effects”. Besides, in [3] (rat, in vivo), the “Duration of action of oxycodone after antagonist” value came to 60 min, the “Effect on morphine antinociception” value was “completely attenuated; also recorded: attenuated the antinociceptive effects”, the “Effect on oxycodone antinociception” value is given as “minor effect on the observed antinocicepfion; also recorded: magnitude of antinociception did not appear to be significantly reduced during the first 15 min; also recorded: almost no effect; also recorded: did not attenuate” and the “Reduction of %MPE values versus untreated rats” value was 5-10%.
As for `CN1CC[C@]23c4c5ccc(O)c4O[C@H]2[C@@H](O)C=C[C@H]3[C@H]1C5` [morphine], the “Time of onset of antinociception (%MPE≥30%)” value in series [10] came to 22 min. Besides, the “Antinociception (% MPE)” value in series [14] (i.p. morphine 621 nmol alone) is on record as not above 50 % MPE. Besides, the “Degree of antinociception (%MPE)” value in series [15] (i.c.v. morphine 15 nmol alone, any time in 3 h) is given as not above 20%. Further, the “Lower threshold initial dose producing analgesia” value in series [16] (intravenous) is 4 to 5 mg. The “Lower threshold initial dose producing analgesia” value in [16] (oral) is recorded as 30 mg. Also, in series [17], the “Failure of eye reflex test” value is recorded as “approximately 40 % of the time” and the “Failure of righting reflex test” value is reported as “approximately 33 % of the time”. Also, the ED50 in series [4] is recorded as 34 nmol. The “Dose used for intubation” value in series [18] is recorded as “approximately 10 mg”.
With `CCC12CCN(CC3(O)CC3)C(Cc3ccc(O)cc31)C2(C)C` (centres unmarked) [bremazocine], the Antinociception profile entry in series [8] was “antinociception characterised by a rapid onset of action and a single antinociceptive phase”.
Turning to `O=C1CC[C@@]2(O)[C@H]3Cc4ccc(O)c5c4[C@@]2(CCN3CC2CC2)[C@H]1O5` [naltrexone], the “Action potential duration (APD)” value in series [5] is given as “marked shortening of the action potential duration (APD)”.
